Measured values taken from PMC7924852, “The Emericellipsins A–E from an Alkalophilic Fungus Emericellopsis alkalina Show Potent Activity against Multidrug-Resistant Pathogenic Fungi” (Journal of Fungi, 2021).

Experiments:
[1] = tested on: C. laurentii 325m; test: Broth microdilution MIC and MFC (CLSI); format: cell-based, Cr. laurentii
[2] = tested on: A. terreus 497; test: Broth two-fold microdilution MIC (CLSI); format: cell-based; conditions: A. terreus 497 clinical isolate; RPMI 1640 pH 7.0, 35 °C, 48 h
[3] = tested on: MDA-MB-231 (breast cancer line); test: MTT cytotoxicity assay; format: cell-based; conditions: 72 h, three experiments, each in triplicate
Protocol: (§1) Experiments for determining the cytotoxic activity of the compound in MTT assays were performed as previously described. The following tumor cell lines were used for this study: HCT-116 (colon cancer cell line), B16 (mouse melanoma cell line), K-562 (leukemia cell line), MDA-MB-231 (breast cancer line), and MCF-7 (breast cancer cell). Human postnatal fibroblasts were used as a normal cell line, and doxorubicin was used as a positive control. The cell lines were cultured in Dulbecco modified Eagle’s medium supplemented with 5% fetal calf serum, 2 mM Lglutamine, 100 U/mL penicillin, and […] streptomycin at 37 °C, 5% CO2 in a humidified atmosphere. Experiments were carried out on cells in the logarithmic phase of growth. The peptide was dissolved in DMSO as a 10 mM stock solution, followed by serial dilutions in water immediately before the experiment. Briefly, cells (5 × 10^3 in […] of culture medium) were plated in a 96-well plate and treated with 0.1% DMSO (blank control) or with […] of the peptide (0.10‒50 μM; each concentration in duplicate) for 72 h. After incubation with peptide, […] of aqueous MTT solution (3-(4,5-dimethylthiazol-2-yl)-2,5-diphenyltetrazolium bromide, 5 mg/mL) were added into each well for 2‒3 h. Formazan was dissolved in DMSO, and the absorbance at 570 nm was measured. The cytotoxicity at a given EmiA concentration was calculated as the percentage of absorbance in wells with peptide-treated cells compared to that of blank control cells (100%). The IC50 (50% growth inhibitory concentration) was defined as the concentration of EmiA that inhibited MTT conversion by 50%. All the experiments were repeated three times, each time in triplicate. EmiA was tested at a range of concentrations, 0.1‒10 μM.

[4] = tested on: B16 (mouse melanoma cell line); test: MTT cytotoxicity assay; format: cell-based; conditions: 72 h, three experiments, each in triplicate
Protocol: as §1

[5] = tested on: HPF (human postnatal fibroblasts, normal cell line); test: MTT cytotoxicity assay; format: cell-based
Protocol: as §1

[6] = tested on: MCF-7 (breast cancer cell); test: MTT cytotoxicity assay; format: cell-based; conditions: 72 h, three experiments, each in triplicate
Protocol: as §1

[7] = tested on: HCT-116 (colon cancer cell line); test: MTT cytotoxicity assay; format: cell-based; conditions: 72 h, three experiments, each in triplicate
Protocol: as §1

[8] = tested on: A. niger ATCC 16404; test: Broth two-fold microdilution MIC (CLSI); format: cell-based, Aspergillus niger; conditions: A. niger ATCC 16404; RPMI 1640 pH 7.0, 35 °C, 48 h, no visible growth
[9] = tested on: A. terreus 3 K; test: Disc-diffusion antifungal assay; format: cell-based; conditions: 40 µg/disc
[10] = tested on: reference and clinical strains of Aspergillus; test: Disc-diffusion antifungal assay, Aspergillus strains; format: cell-based; conditions: range over clinical isolates of Aspergillus (Figure S2)
[11] = tested on: C. glabrata 1402; test: Broth microdilution MIC and MFC (CLSI); format: cell-based
[12] = tested on: A. fumigatus 390 m; test: Disc-diffusion antifungal assay; format: cell-based, Aspergillus fumigatus; conditions: 40 µg/disc, pathogenic clinical isolate
[13] = tested on: C. parapsilosis 571; test: Broth microdilution MIC and MFC (CLSI); format: cell-based
[14] = tested on: Aspergillus niger ATCC 16404; test: Disc-diffusion antifungal assay; format: cell-based; conditions: 40 µg/disc; A. niger ATCC 16404
[15] = tested on: A. niger 1133 m; test: Disc-diffusion antifungal assay; format: cell-based, Aspergillus niger; conditions: 40 µg/disc, pathogenic clinical isolate
[16] = tested on: isolates of Aspergillus spp.; test: Broth microdilution MIC, ranges over mould isolates; format: cell-based; conditions: range over opportunistic and clinical isolates of Aspergillus spp. (Table 4)
[17] = tested on: A. fumigatus 390 m; test: Broth two-fold microdilution MIC (CLSI); format: cell-based, Aspergillus fumigatus; conditions: A. fumigatus 390 m clinical isolate; RPMI 1640 pH 7.0, 35 °C, 48 h

Methyldecanoyl-MePro-AHMOD-Ala-Aib-Ile-Iva-βAla-Alaol-Glyol [EmiA, emericellipsin A, nonribosomal lipopeptaibol, major compound of E. alkalina VKPM F1428]
MIC ([1]; C. laurentii 325m clinical isolate, RPMI 1640 pH 7.0, 35 °C, 24 h): 0.5 µg/mL | MFC ([1]; C. laurentii 325m, lowest concentration causing 95% death): 0.5 µg/mL | Minimal Inhibitory Concentration (MIC) [2]: 1 µg/mL | IC50 [3]: 8 ± 1.04 µM | IC50 [4]: 16 ± 2.08 µM | IC50 ([5]; HPF normal fibroblasts, MTT, 72 h, three experiments, each in triplicate): 11.5 ± 1.5 µM | antiproliferative activity inferior to doxorubicin ([5]; interaction with PFH, relative to doxorubicin): 60 times | IC50 [6]: 11 ± 1.2 µM | IC50 [7]: 2.3 ± 0.3 µM | Minimal Inhibitory Concentration (MIC) [8]: 4 µg/mL | Zone of Inhibition [9]: 12 ± 0.25 mm | inhibition zones [10]: 15–19 mm | MFC ([11]; C. glabrata 1402, lowest concentration causing 95% death): 0.5 µg/mL | MIC ([11]; C. glabrata 1402 clinical isolate, RPMI 1640 pH 7.0, 35 °C, 24 h): 0.25 µg/mL | Zone of Inhibition [12]: 20 ± 0.40 mm | MFC ([13]; C. parapsilosis 571, lowest concentration causing 95% death): 1 µg/mL | MIC ([13]; C. parapsilosis 571 clinical isolate, RPMI 1640 pH 7.0, 35 °C, 24 h): 1 µg/mL | Zone of Inhibition [14]: 25 ± 0.21 mm | Zone of Inhibition [15]: 18 ± 0.27 mm | MIC range [16]: 0.5 to 4 µg/mL | Minimal Inhibitory Concentration (MIC) [17]: 2 µg/mL
